Experiment [1] has as its target T1, E. coli DnaK (Escherichia coli, UniProt P0A6Y8). As to the kind of experiment: FRET quenching peptide–protein interaction assay with DnaK–BHQ10. The note with it: 2 h, n = 3; for DnaK interaction / binding-curve shape, in words / Kd not determinable: pH 7.4; for Kd not determinable: DnaK–BHQ10 quenching, peptide N-terminal carboxyfluorescein, C-terminal amide. It counts as binding. How it is done: DnaK, produced by Michael Zahn, was dialysed against modifying buffer (20 mmol l^−1 Na2HPO4, 20 mmol l^−1 KH2PO4, 5 mmol l^−1 MgCl2, 150 mmol l^−1 KCl, pH 7.4) as previously described and 2 mg ml^−1 were labelled with a 10-fold molar excess of BHQ10-NHS-ester, followed by supplementary dialysis to remove excess BHQ10.
As previously described, the fluorescein-modified peptides (50 μl, 1.3 nmol l^−1) and a serial dilution of DnaK–BHQ10 in modification buffer (50 μl, 0.8–13 000 nmol l^−1, 1 : 4 dilution series) were mixed in a black 384-well plate and incubated for 2 h. To calculate the quenching effect, a control was measured in five replicates consisting of 50 μl of peptide solution and 50 μl of modification buffer. The fluorescence intensity was recorded on a Paradigm fluorescence reader using a fluorescence intensity (fluo-rhod) detection cartridge (excitation wavelength = 485 ± 10 nm; emission wavelength = 535 ± 12.5 nm; integration time = 140 ms). The quenching effect was defined as the percentage of the fluorescence intensity of the control quenched after the addition of DnaK–BHQ10. Kd values were determined as described in the electronic supplementary material. […]
i) Peptide synthesis and modification.
The peptide sequences shown in Tabl es S1 an d S4 were selected according to their repo rted […]
(Carmel, USA), respectively. The m ature peptide sequences were based on data from closel y-related species and EST information derived from B. terrestris. Other peptides were s ynthesized b y PANATecs (Tübingen, Germ an y) . All peptides were l yoph ilized for storage, and were resuspended and diluted in double-distilled water, which was used as the zero peptide […]
metchnikowin 1 and 2 (Drosophila melanogaster) peptides were modified by the N -terminal addition of 5(6 )-carbox yfluorescein and C -terminal amidation for the quenching assa y. Bombus pascuorum h ymenoptaecin was modified b y the addition of an N-terminal p yroglutamate. The Black Hole Quencher 10 succinimidyl ester (BHQ10-NHS-ester, >75% purit y) was obtained from BioCat (H eidelber g, German y). […]

Experiment [2] addresses T1, E. coli DnaK. The following applies: ref [51]; cited from earlier work.
Experiment [3] relates to substrate-binding domain of DnaK. The note with it: co-crystal structures; ref [58]; cited from earlier work. The text has this:
Normally, the characteristic sequence stretch YL/IPRP is positioned in the DnaK substrate-binding cleft, with a leucine or isoleucine residue occupying the central hydrophobic pocket. Additional hydrophobic binding sites preceding the central pocket are occupied by the conserved tyrosine residue and another, preferentially hydrophobic amino acid residue, defined as posi ...

Experiment [4] concerns E. coli. Also on record: method as in PMID 6396089. The note with it: following treatment with H. cecropia attacin; ref [15]; cited from earlier work.
Setting [5] is: fluorescein-modified peptide 1.3 nmol l−1, DnaK–BHQ10 0.8–13 000 nmol l−1.

Results on 8 compounds are retold here after publication PMC4426631, “Insect antimicrobial peptides show potentiating functional interactions against Gram-negative bacteria” (Proceedings of the Royal Society B: Biological Sciences, 2015).

“Also recorded” adds a separate entry of the source. Ends that are not written are not given here. Peptide text beside a SMILES is read from it. * marks the point of attachment. 5FAM = O=C1OC2(c3ccc(O)cc3Oc3cc(O)ccc32)c2ccc(C(=O)*)cc21; Cf = 5(6)-carboxyfluorescein

T1 sequence (P0A6Y8 whole entry): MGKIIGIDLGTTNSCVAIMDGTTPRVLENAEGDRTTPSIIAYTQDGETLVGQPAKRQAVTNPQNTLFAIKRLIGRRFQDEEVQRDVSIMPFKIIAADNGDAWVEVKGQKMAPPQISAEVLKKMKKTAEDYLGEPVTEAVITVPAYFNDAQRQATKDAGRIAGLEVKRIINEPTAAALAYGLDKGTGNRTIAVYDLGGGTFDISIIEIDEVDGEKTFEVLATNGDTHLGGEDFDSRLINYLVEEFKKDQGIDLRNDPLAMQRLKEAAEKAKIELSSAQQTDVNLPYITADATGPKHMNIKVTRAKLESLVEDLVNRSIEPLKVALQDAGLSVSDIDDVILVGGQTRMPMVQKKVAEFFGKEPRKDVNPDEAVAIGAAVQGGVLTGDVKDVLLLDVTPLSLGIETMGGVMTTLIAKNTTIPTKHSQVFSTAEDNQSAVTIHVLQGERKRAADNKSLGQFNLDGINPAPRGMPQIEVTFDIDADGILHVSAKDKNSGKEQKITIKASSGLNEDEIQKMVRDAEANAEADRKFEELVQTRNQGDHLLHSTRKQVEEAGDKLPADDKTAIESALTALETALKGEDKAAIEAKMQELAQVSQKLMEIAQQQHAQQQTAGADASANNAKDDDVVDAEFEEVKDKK

As to `CC[C@H](C)[C@H](NC(=O)[C@H](CCCCN)NC(=O)[C@@H]1CCCN1C(=O)[C@H](CC(N)=O)NC(=O)[C@H](Cc1ccccc1)NC(=O)[C@@H]1CCCN1C(=O)CNC(=O)[C@H](Cc1c[nH]cn1)NC(=O)CNC(=O)[C@@H]1CCCN1C(=O)[C@H](Cc1ccccc1)NC(=O)[C@H](CO)NC(=O)[C@@H]1CCCN1C(=O)[C@H](Cc1ccccc1)NC(=O)[C@@H]1CCCN1C(=O)[C@H](CCCCN)NC(=O)[C@H](CO)NC(=O)[C@H](CCC(N)=O)NC(=O)CNC(=O)[C@@H]1CCCN1C(=O)[C@H](CCCNC(=N)N)NC(=O)[C@@H]1CCCN1C(=O)[C@@H]1CCCN1C(=O)[C@H](CC(N)=O)NC(=O)[C@H](Cc1ccc(O)cc1)NC(=O)[C@@H]1CCCN1C(=O)[C@@H](NC(=O)[C@H](Cc1ccccc1)NC(=O)c1ccc2c(c1)C(=O)OC21c2ccc(O)cc2Oc2cc(O)ccc21)C(C)C)C(=O)N[C@@H](CCC(N)=O)C(=O)N[C@@H](Cc1c[nH]c2ccccc12)C(=O)N1CCC[C@H]1C(=O)N[C@@H](Cc1ccc(O)cc1)C(=O)N1CCC[C@H]1C(=O)N[C@@H](CC(C)C)C(=O)N1CCC[C@H]1C(=O)N[C@@H](CC(N)=O)C(=O)N1CCC[C@H]1C(=O)NCC(=O)N[C@@H](Cc1c[nH]cn1)C(N)=O` [B. pascuorum abaecin] (5FAM-FVPYNPPRPGQSKPFPSFPGHGPFNPKIQWPYPLPNPGH-NH2), the “maximum quenching effect (binding efficacy)” value in experiment [1] (fluorescein-modified peptide 1.3 nmol l−1, DnaK–BHQ10 0.8–13 000 nmol l−1, buffer pH 7.4, fluorescence) is given as 74%. Take Cf-PQPRPPHPRL-OH [apidaecin 1b (#9–18)]: the “DnaK interaction / binding-curve shape, in words” value in experiment [1] (setting [5]) is “small increase in control readouts with increasing probe concentration”. Besides, the “DnaK interaction of control peptide, in words” value in experiment [2] was “interacts minimally with DnaK”.

For “Pyrrhocoricin: proline-rich DnaK-binding AMP (VDKGSYLPRPTPPRPIYNRN; ends and bridges not checked; UniProt P37362 1-20, looked up)”, the DnaK binding orientation result in experiment [3] was “can bind to DnaK in both of the above orientations”. Turning to “cecropin B: Hyalophora cecropia cecropin B (KWKVFKKIEKMGRNIRNGIVKAGPAIAVLGEAKAL; ends and bridges not checked; UniProt P01508 27-61, looked up)”, the “sensitivity of E. coli towards cecropin B following attacin” value in experiment [4] was “enhanced”. Turning to “drosocin: proline-rich DnaK-binding AMP (GKPRPYSPRPTSHPRPIRV; ends and bridges not checked; UniProt P36193 22-40, looked up)”, the DnaK binding orientation entry in experiment [3] was “a proline residue near the C-terminus of drosocin occupies the central pocket”. For “metalnikowin I: proline-rich AMP from Palomena prasina (Cf-VDKPDYRPRPRPPNM-NH2)”, the Kd not determinable entry in experiment [1] was “No Kd values could be determined; also recorded: not possible to assign a Kd value”. In experiment [1] (setting [5]), the “DnaK interaction / binding-curve shape, in words” value is listed as “do not interact significantly with bacterial DnaK”. Turning to “metchnikowin 1: proline-rich AMP from Drosophila melanogaster (Cf-HRHQGPIFDTRPSPFNPNQPRPGPIY-NH2)”, the Kd not determinable result in experiment [1] is reported as “No Kd values could be determined; also recorded: not possible to assign a Kd value”. Moreover, the “DnaK interaction / binding-curve shape, in words” value in experiment [1] (setting [5]) is recorded as “do not interact significantly with bacterial DnaK”. In the case of “metchnikowin 2: proline-rich AMP from Drosophila melanogaster (Cf-HRRQGPIFDTRPSPFNPNQPRPGPIY-NH2)”, the Kd not determinable entry in experiment [1] was “No Kd values could be determined; also recorded: not possible to assign a Kd value”. Besides, the “DnaK interaction / binding-curve shape, in words” value in experiment [1] (setting [5]) is “do not interact significantly with bacterial DnaK”.
